# Patent US20070219224A1, “Compositions and Methods Relating to Pyrimidine Synthesis Inhibitors” (UAB RESEARCH FOUNDATION, THE, priority 2004, published 2007)
# Entries after “also recorded” stand apart in the source; their conditions may differ. Marks after values point to notes of the source that are not given here.
# Assays:
# UTP/ATP content of BALF = test: Measurement of nucleotides (UTP/ATP content) in BALF of RSV-infected mice; type: in vivo, BALB/c mice
# Description: (§1) Preparation of viral inocula and infection of mice. Preparation of viral stocks and intranasal infection of eight to twelve week-old pathogen-free BALB/c mice of either sex with RSV strain A2 (10^6 PFU in 100 μl) were performed as described in Davis et al., “Nucleotide-mediated inhibition of alveolar fluid clearance in BALB/c mice after respiratory syncytial virus infection,” Am. J. Physiol. Lung Cell Mol. Physiol. 286:L112-L120. (2004). Data for each experimental group was derived from a minimum of 2 independent infections.
# (§2) Bronchoalveolar lavage. Bronchoalveolar lavage fluid (BALF) was collected as previously described in Davis et al., (2004), using 1 ml of sterile normal saline for cytokine ELISAs, or 0.3 ml of sterile saline for nucleotide assays. Lavagates were centrifuged to remove cells and supernatants stored at −80° C.
# Measurement of nucleotides in BALF. Endogenous nucleotidases in BALF were heat denatured (100° C., 3 minutes) and UTP/ATP content measured using the […] and luciferine-luciferase assays, respectively.
# Systemic inhibition of de novo pyrimidine and purine synthesis. Leflunomide (5-methylisoxazole-4-[4-trifluoromethyl]carboxanilide, 35 mg/kg in distilled water containing 1% methylcellulose) was administered once daily by oral gavage in a volume of 300 μl/mouse for 8 days prior to infection, then throughout the infection period. Vehicle controls were gavaged with an equivalent volume of 1% methylcellulose in distilled water. […]
# uninfected BALB/c mice = test: Alveolar fluid clearance (AFC) in uninfected or mock-infected mice; type: in vivo; conditions: for effect on AFC in uninfected / normal (mock-infected) mice (in words): leflunomide oral gavage
# Description: Systemic inhibition of de novo pyrimidine and purine synthesis. […] Vehicle controls were gavaged with an equivalent volume of 1% methylcellulose in distilled water. Uridine (1 g/kg in 0.9% NaCl) was administered by i.p. injection every 12 hours in a volume of 100 μl (8). […]
# AFC studies were performed on anesthetized, ventilated BALB/c mice with normal body temperature and blood gases, over a 30 minute period after intratracheal instillation of 0.3 ml of isosmolar NaCl containing 5% fatty acid-free BSA. The number of mice analyzed per group is listed in the relevant bar of each graph.
# [1] = system: IFN-α, IL-1β, KC, TNF-α in BALF; test: Measurement of proinflammatory cytokines in BALF (ELISA); type: in vivo, BALB/c mice; conditions: RSV-infected mice, d2
# Description: as §1, §2
# Systemic inhibition of de novo pyrimidine and purine synthesis. Leflunomide (5-methylisoxazole-4-[4-trifluoromethyl]carboxanilide, 35 mg/kg in distilled water containing 1% methylcellulose) was administered once daily by oral gavage in a volume of 300 μl/mouse for 8 days prior to infection, then throughout the infection period. Vehicle controls were gavaged with an equivalent volume of 1% methylcellulose in distilled water. […].
# Measurement of proinflammatory cytokines in BALF. Cytokine levels were determined using Quantikine M ELISA kits (R & D Systems), in accordance with manufacturer's instructions.
# RSV-infected BALB/c mice [2] = test: Mean peripheral blood oxygen saturation (SmO2), pulse oximetry; type: in vivo; conditions: d2
# Description: Measurement of mean peripheral blood oxygen saturation. Peripheral blood oxygen saturation was measured in conscious mice, using a PREEMIE OXYTIP® sensor (Datex-Olmeda, hic., Madison, Wis.), connected to a TUFFSAT™ pulse oximeter (Datex-Ohmeda, Inc., Madison, Wis.). Because of the extremely rapid pulse rate of the mouse, oximetry values are mean hemoglobin O2 saturation (SmO2) values from arterial and venous blood.
# (§3) Systemic inhibition of de novo pyrimidine and purine synthesis. Leflunomide (5-methylisoxazole-4-[4-trifluoromethyl]carboxanilide, 35 mg/kg in distilled water containing 1% methylcellulose) was administered once daily by oral gavage in a volume of 300 μl/mouse for 8 days prior to infection, then throughout the infection period. Vehicle controls were gavaged with an equivalent volume of 1% methylcellulose in distilled water. Uridine (1 g/kg in 0.9% NaCl) was administered by i.p. injection every 12 hours in a volume of 100 μl (8). 6-MP (35 mg/kg in 1N NaOH, pH adjusted to 7.9 with 2 M Na2HPO4) was administered by i.p. injection every 24 hours in a volume of 100 μl, for 5 days prior to infection, then throughout the infection period.
# RSV-infected BALB/c mice [3] = test: Heart rate change with ventilation (% ΔHR30), ECG; type: in vivo; conditions: RSV-infected mice during AFC procedures, d2
# Description: Measurement of heart rate changes with ventilation. ECG tracings were used to measure heart rate (number of QRS complexes/cm) at the start (HRSTART) and end (HREND) of the AFC assay. The % change in rate over the 30-minute ventilation period (% ΔHR30) was calculated as (HRSTART−HREND)/HRSTART.
# as §3
# RSV-infected BALB/c mice [4] = test: Nasal potential difference (NPD, NPDAMIL); type: in vivo; conditions: leflunomide throughout the infection period
# Description: Measurement of nasal potential difference. The potential difference across the nares of anesthetized mice (with the tail as reference) was measured as previously described Grubb et al., (1994) “Hyperabsorption of Na+ and raised Ca(2+)-mediated Cl-secretion in nasal epithelia of CF mice,” Am. J. Physiol 266:C1478-C1483. A baseline NPD was recorded during perfusion of the nasal epithelium with lactated Ringer's solution. The amiloride-sensitive component of NPD (NPDAMIL) was determined by perfusion with lactated Ringer's solution containing 100 μM amiloride. Current pulses of ±60 nA were applied across the epithelium by a 12V battery in series with a 200 MΩ resistor. Changes in NPD in response to the current pulses (proportional to nasal transepithelial resistance, NRte) were recorded (ΔNPD).
# as §3, with “6-MP (35 mg/kg in 1N NaOH, pH adjusted to 7.9 with 2 M Na2HPO4) was administered by i.p. injection every 24 hours in a volume of 100 μl, for 5 days prior to infection, then throughout the infection period.” left out
# [5] = d2, leflunomide 35 mg/kg oral gavage once daily, uridine 1 g/kg i.p. every 12 hours
structure (smiles),measurement,setting,value
"Cc1oncc1C(=O)Nc1ccc(C(F)(F)F)cc1 [Leflunomide, 5-methylisoxazole-4-[4-trifluoromethyl]carboxanilide]","effect on BALF nucleotide (UTP, ATP) levels (in words)",UTP/ATP content of BALF; d2,"No increase in BALF nucleotide levels was detected; also recorded: reduced BALF content of both nucleotides to levels below those in untreated, uninfected mice"
same,"ATP, mean nucleotide concentration in BALF ± SE",UTP/ATP content of BALF; [5],6 ± 1 nmol/L
same,"UTP, mean nucleotide concentration in BALF ± SE",UTP/ATP content of BALF; [5],5 ± 2 nmol/L
same,effect on AFC in uninfected / normal (mock-infected) mice (in words),uninfected BALB/c mice,no detrimental effect on AFC
same,effect on AFC in uninfected / normal (mock-infected) mice (in words),uninfected BALB/c mice; listed as LEF,no effect on AFC
same,effect on AFC in uninfected / normal (mock-infected) mice (in words),uninfected BALB/c mice; listed as leflunomide,significant inhibition of AFC
same,AFC30BASAL (mean % basal AFC after 30 minutes ± SE),"uninfected BALB/c mice; mock-infected mice, leflunomide 5 mg/kg oral gavage once daily",33.16 ± 2.40 %
same,AFC (mean % AFC ± SE),"uninfected BALB/c mice; uninfected mice, leflunomide-treated",29.98 ± 1.5 %
same,"BALF proinflammatory cytokine levels (IFN-α, IL-1β, KC, TNF-α) (in words)",[1],significantly reduced
same,"BALF proinflammatory cytokine levels (IFN-α, IL-1β, KC, TNF-α) (in words)",[1]; listed as LEF,significant reduction
same,"IFN-α, mean cytokine concentration in BALF ± SE",[1]; systemic treatment,72 ± 12 pg/mL
same,"IL-1β, mean cytokine concentration in BALF ± SE",[1]; systemic treatment,20 ± 8 pg/mL
same,"KC, mean cytokine concentration in BALF ± SE",[1]; systemic treatment,425 ± 58 pg/mL
same,"TNF-α, mean cytokine concentration in BALF ± SE",[1]; systemic treatment,0*** pg/ml
same,SmO2 (mean blood O2 saturation),RSV-infected BALB/c mice [2],improved mean blood O2 saturation; also recorded: normalization of SmO2 readings
same,% ΔHR30,RSV-infected BALB/c mice [3],prevented the increase in % ΔHR30
same,basal NPD and NPDAMIL,RSV-infected BALB/c mice [4],completely prevented RSV-induced declines in basal NPD and NPDAMIL
